The assay concerns P. falciparum 3D7 growth, pLDH absorbance. Put plainly: P. falciparum 3D7 growth inhibition, dose response, strain 3D7 (AID 2305).

Each structure is given as a SMILES string.

In turn, `N#CCOc1c(C2CCN(CCCCNC(=O)c3ccc(-c4ccc(C(F)(F)F)cc4)cc3)CC2)ccc2c1CCCC2` registered an IC50 of 0.76 µM. As to `CC[C@H]1CN2CCc3cc(OC)c(OC)cc3[C@@H]2C[C@@H]1C[C@H]1NCCc2c1cc(OC)c(O)c2I`, the IC50 was 0.22 µM. This IC50 lies about 3.5-fold lower than the previous one. Consider `O=C(Cc1ccc(NC(=O)c2ccc(O)c(-c3ccc(Cl)c(Cl)c3)c2)cc1)NCCc1ccc(Cl)c(Cl)c1`, for which the IC50 was 0.72 µM. For the molecule `O=C(Nc1cccc(CN2CCN(Cc3ccc(O)cc3)CC2)c1)c1cc2ccccc2o1`, the IC50 was 1.18 µM.

Molecule `CCCN1CCN(Cc2ccc(C(=O)Nc3ccc(Cl)cc3)cc2)CC1` had an IC50 of 0.05 µM. With `O=C(/C=C/c1ccc(Cl)c(Cl)c1)N1CCC(CN2[C@@H]3CC[C@H]2CC(c2c[nH]c4ccccc24)C3)CC1` (stereo partly drawn), the IC50 was determined as 0.74 µM. With `O=C(Nc1ccccc1Br)N[C@@H]1CCN(c2ccnc3ccccc23)C1` the figure was 0.94 µM; with `CN(C)CCOc1cc(NC(=O)Nc2cccc3c(-c4ccncc4)cccc23)ccc1I`, 0.73 µM. With `COc1ccc(S(=O)(=O)N(CC(=O)NN=C(C)c2cccs2)c2cc(C)cc(C)c2)cc1OC` the figure was 0.14 µM. Regarding `O=C(Nc1ccccc1O)c1ccc(Oc2cccc(C(=O)Nc3ccccc3O)c2)cc1`, the IC50 was determined as 0.8 µM.

In turn, `COc1ccc(NC(=O)[C@H](Cc2ccccc2)Nc2cc(C)nc(NCCc3ccccn3)n2)cc1` showed an IC50 of 0.83 µM.

In turn, `COc1ccc2nccc([C@H](O)CN3CCC(NCc4cc(C)c5c(c4)OCCO5)CC3)c2n1` registered an IC50 of 0.9 µM. With `COc1ccc(C=NNc2cc(C)nc3ccccc23)c(OC)c1` the figure was 0.62 µM.

Molecule `ON=C(c1nc2ccccc2[nH]1)c1nc2ccccc2[nH]1` had an IC50 of 1.09 µM. Molecule `CC(=O)NCCNc1nccc(N2CCc3ncnc(Nc4ccc(OCc5cccc(F)c5)c(Cl)c4)c3C2)n1` registered an IC50 of 0.13 µM. As for `C[C@@H](CC1CCCCC1)OC(=O)N(C)[C@@H]1CCN(C#N)C1`, the half-inhibitory concentration (IC50) amounted to 0.62 µM. With `CC(C)Cn1c(Sc2ccc(C#N)c([N+](=O)[O-])c2)nnc1-c1ccccc1` the figure was 1.09 µM. With `FC(F)(F)CNc1nc(Nc2ccc3ncccc3c2)nc2[nH]ccc12` the figure was 1.24 µM. Molecule `CC(C)N1CCC(N(Cc2ccc(-c3ccc(Cl)cc3)cc2)C(=O)Cn2c(CCc3cccc(F)c3F)cc(=O)c3ccccc32)CC1` registered an IC50 of 0.93 µM. The molecule `COC(=O)c1sc2ccccc2c1NC(=O)c1ccc(C)c(C)c1` returned an IC50 of 1.07 µM.

`O=C(c1ccc(Cl)cc1)N1CCOC(CCN2CCC(c3ccccc3)CC2)(c2ccc(Cl)c(Cl)c2)C1` (stereo not drawn) had an IC50 of 0.24 µM.

`COc1cccc(OC)c1C(=O)Nc1cccc(-c2nn3ccccc3c2-c2ccnc(Nc3cccc(F)c3)n2)c1` returned an IC50 of 0.75 µM.

In the case of `Cc1c(N=O)cc(C(C)(C)C)c(O)c1C(=O)Nc1ccc([N+](=O)[O-])cc1Cl`, the concentration for half-maximal inhibition (IC50) came to 0.77 µM. With `Cc1cc(NC(=O)Nc2ccc(C(C)C)cc2)c2ccccc2n1` the figure was 0.66 µM; with `CCOc1cc(C(=O)NCc2cc(Cl)cc(Cl)c2)ccc1-c1nc2ccc(Cl)cc2[nH]1`, 0.73 µM; with `COc1cccc(CNCC(C)(C)c2nc(-c3ccc(Cl)c(O)c3)c(-c3ccncc3)[nH]2)c1`, 0.69 µM. The value for `CC=CCON1C(N)=NC(N)=NC1(C)C` was 0.03 µM. The molecule `CN(C)C(=O)c1cc(CNCc2ccccc2)ccc1-c1cccc(CNCc2ccc(-c3ccccc3)cc2)c1` showed an IC50 of 1.05 µM. Regarding `NC(N)=Nc1nc(-c2cccc(NC(=O)Cc3ccccc3)c2)cs1`, the IC50 turned out to be 1 µM. Molecule `Cn1ncc2c3c(CCN4CCC(NCc5cc6c(cn5)OCCO6)CC4)c(Cl)cnc3ccc21` came in with an IC50 of 0.77 µM. The value for `CC[C@H]1CN2CC[C@@H]1C[C@H]2[C@H](O)c1cc(N2CCC(O)(c3ccccc3)CC2)nc2ccc(OC)cc12` was 0.09 µM; that for `CC(=O)c1c(Nc2c(C)cc(C)cc2C)oc(C)cc1=O` was 0.48 µM. With `CN(C)CCc1coc2ccc(C(=O)Nc3ccc(-c4ccc(O)cc4)cc3)cc12` the figure was 1.08 µM. The value for `CC1(C)N=C(N)N=C(N)N1c1ccc(Oc2ccc(Cl)cc2)c(Cl)c1` was 0.08 µM; that for `CN(CCO)Cc1cccc(-c2ccc(NC(=O)c3cccc(C#N)c3)cc2)c1` was 0.8 µM.

`COC(=O)c1cccc(N2CCN(CCCNC(=O)/C(=C/C=C/c3cc4cc(Cl)c(Cl)cc4[nH]3)OC)CC2)c1` came in with an IC50 of 0.67 µM. With `CC(=O)Nc1ccc(C(=O)NC2CCN(c3ccnc4cc(Cl)ccc34)C2)cc1` (stereo not drawn) the figure was 0.81 µM. The molecule `CC(Cc1ccc(Cl)cc1)Nc1nc(NC2CCCC2)nc(N2CCC(C#N)(c3ccccc3)CC2)n1` (stereo not drawn) returned an IC50 of 0.71 µM. The IC50 values of the last two molecules are within 1.5-fold of each other. Regarding `CCN(CC)C(=O)C1CCN(C(C(=O)N2CCN(CC(=O)N3CCCC3)CC2)c2cc3ccccc3o2)CC1` (stereo not drawn), the IC50 stood at 0.71 µM. In other words, the sub-micromolar range. The value for `CN1CCN(c2ccc(Nc3c4ccccc4nc4ccccc34)cc2)CC1` was 0.64 µM. The value for `CCN1CCC(N(Cc2ccc(-c3ccc(C(F)(F)F)s3)cc2)C(=O)Cn2c(CCc3cccc(F)c3F)nc(=O)c3ccccc32)CC1` was 0.93 µM. The value for `COc1cc2nc(NC3CCN(Cc4ccccc4)CC3)nc(N)c2cc1OC` was 0.17 µM; that for `CN(CCc1ccccc1)c1ncc(-c2cccc(CNCCC3CCCN3C)c2)cn1` (stereo not drawn) was 0.87 µM. In the case of `CC(=NN=C(N)N)c1ccc2c(ccc3ccccc32)c1`, the IC50 worked out at 0.83 µM. On to `COc1cccc(NC(=O)c2ccc(NCCCN3CCC(C)CC3)c([N+](=O)[O-])c2)c1`, for which the IC50 stood at 0.77 µM. The IC50 values of the last two molecules are within 1.5-fold of each other. With `Cc1cc(=O)c(-c2ccc(OCc3ccc(Cl)cc3)cc2)c(C)[nH]1` the figure was 0.73 µM. As for `O=C(Nc1ccc(NC2=NCCN2)cc1)Nc1ccc(NC2=NCCN2)cc1`, the IC50 came to 0.85 µM. Molecule `COc1ccc2nc(-c3cccc(C)n3)nc(Nc3ccncc3)c2c1` gave an IC50 of 0.67 µM. `CC1(C)N=C(N)NC(NOCc2ccc(Cl)c(Cl)c2)=N1`: the IC50 is 0.23 µM. With `CC1CC(C)CN(CC(O)CNC(=O)Nc2ccc(Br)cc2)C1` (stereo not drawn), the IC50 turned out to be 1.05 µM.

`CCc1cn2c3c(cc(C(=O)N[C@@H](Cc4ccccc4)[C@H](O)CNC4CCOCC4)cc13)N(C(C)C)S(=O)(=O)CC2` yielded an IC50 of 0.08 µM. With `CC(C)(C)c1cc(C(=O)Nc2cccnc2)cc(C(=O)Nc2cccnc2)c1` the figure was 0.76 µM; with `CCCOc1ccc(C(F)(F)F)cc1NC(=O)c1nc2nc(C)cc(C)n2n1`, 0.25 µM; with `COc1ccc(-c2nc(NC(=O)CSc3ccccc3)sc2C)cc1`, 0.76 µM. In turn, `Cc1ccc(NC(=O)N2CCCN(CCCCCNC(=O)/C=C/c3ccc(Cl)c(Cl)c3)CC2)cc1` registered an IC50 of 0.76 µM. With `CC(C)CCNCC(O)Cn1c2ccc(Cl)cc2c2cc(Cl)ccc21` (stereo not drawn) the figure was 0.45 µM. Consider `CC(=O)Nc1ccc(CNC2Cc3ccc(-c4ccc(Cl)c(Cl)c4)cc3C2)cc1` (stereo not drawn), for which the IC50 is 1 µM. The value for `CN1CCc2cc(Br)c(O)cc2C1Cc1ccccc1Cl` (stereo not drawn) was 0.67 µM; that for `Cc1ccc(NC(=O)c2ccc3ncccc3c2)cc1OC1CCN(Cc2ccc(F)cc2)C1` (stereo not drawn) was 1.36 µM.

`O=C(CCCC(=O)Nc1ccc(C2=NCCN2)cc1)Nc1ccc(C2=NCCN2)cc1` returned an IC50 of 0.11 µM.

On to `COc1ccc2c(NN=Cc3ccccc3Cl)ccnc2c1`, for which the IC50 was found to be 0.62 µM. Against the preceding molecule, the IC50 is about 5.6-fold higher. The value for `CCCNCc1ccc(-c2ccc(CN(Cc3cccs3)C(=O)C3CCN(C)CC3)cc2)nc1` was 0.66 µM.

For the molecule `Oc1ccc(CCNc2nc(NCCCOc3ccccc3-c3ccc(C(F)(F)F)cc3)nc(N3CCNCC3)n2)cc1`, the IC50 turned out to be 0.89 µM. With `Cn1c(CN2CCC(N3CCc4cc(NC(=O)c5ccco5)ccc43)C2)cc2ccccc21` (stereo not drawn), the IC50 turned out to be 0.88 µM. This IC50 and that of the molecule before are within 1.5-fold of each other. With `O=C(c1ccc(-c2ccc(-c3nc4ccccc4[nH]3)s2)cc1)N1CCCCC1CN1CCC(O)C1` (stereo not drawn) the figure was 1.05 µM; with `COc1ccccc1CN1CCC(CNC(=O)c2cc(-c3cccc(C(F)(F)F)c3)cs2)C1` (stereo not drawn), 1.31 µM. As to `CCCCCN1CCC(CNS(=O)(=O)c2ccc(C(=O)Nc3cccc(C(F)(F)F)c3)cc2)CC1`, the IC50 is 0.75 µM. Compared with the last molecule, the IC50 is about 1.7-fold lower. `CCN1CCc2nc3ccccc3c(C(=O)Nc3ccc(C#N)cc3)c2C1` gave an IC50 of 0.78 µM. With `c1ccc(-c2ccc3c(Nc4ccc5[nH]ncc5c4)ccnc3c2)nc1` the figure was 0.82 µM; with `Cc1ccc(N)cc1-c1nc(NC2CC(C)(C)NC(C)(C)C2)nc2c1ccc(=O)n2-c1c(F)cccc1F`, 0.84 µM; with `O=C(NC1CCN(CCc2c[nH]c3ccc(F)cc23)CC1)c1ncc(-c2ccccc2)[nH]1`, 0.87 µM. The molecule `CC(=O)Nc1ccc(OCCCN(Cc2ccccc2OC(F)(F)F)c2ccc(C(F)(F)F)c(C#N)c2)c(Cl)c1` gave an IC50 of 0.81 µM. The IC50 values of the last two molecules are within 1.5-fold of each other.

Molecule `Cc1nc(-c2cccc(Nc3nccc(NCC(O)c4cccc(C(F)(F)F)c4)n3)c2)cs1` (stereo not drawn) displayed an IC50 of 0.63 µM. The molecule `CCCCCC(=O)NCC(NCCCNc1cc(=O)c2ccccc2[nH]1)c1cc(Br)cc(Br)c1` (stereo not drawn) had an IC50 of 0.65 µM.

Regarding `CCCN1CCN(CCCNc2c3ccccc3nc3ccccc23)CC1`, the IC50 amounted to 0.55 µM. For the molecule `Cc1cccc(CNc2ncc(C)c(NCCC(=O)Nc3ccccc3)n2)c1`, the IC50 came to 1.15 µM. Compared with the last molecule, the IC50 is about 2.1-fold higher.

Regarding `c1cc(CNCCN2CCNCC2)cc(-c2cccc(-c3nc4ccccc4[nH]3)c2)c1`, the IC50 came to 0.96 µM. With `O=C(O)CNCC(O)c1ccccc1` (stereo not drawn) the figure was 0.18 µM.

On to `O=C(Nc1ccc(Cl)cc1)Nc1cccc(CCNCc2ccccc2)c1`, for which the IC50 was found to be 0.73 µM.

`Cc1cccc2[nH]c(-c3ccc(-c4cccc(NC(=O)NCc5ccccc5)c4)cc3)nc12` gave an IC50 of 0.78 µM. With `Oc1ccc(CCCNc2nc(NCc3cccc4ccccc34)nc(NC3CCNCC3)n2)cc1` the figure was 1.13 µM; with `CCC(C)NC(=O)Nc1ccc(-c2cccc(-c3nc4ccccc4[nH]3)c2)cc1` (stereo not drawn), 0.82 µM; with `Brc1ccc(Nc2nc(NCc3ccccc3)c3ccccc3n2)cc1`, 0.34 µM. Molecule `CNC(=O)c1ccccc1Nc1nc(Nc2ccc(N3CCN(C)CC3)nc2)ncc1C` had an IC50 of 1.14 µM. Molecule `CCN1CCC(N(Cc2ccc(-c3ccc(Cl)cc3)cc2)C(=O)Cn2c(CCc3cccc(F)c3F)cc(=O)c3ccccc32)CC1` showed an IC50 of 0.7 µM. The value for `O=C(NCCCCN1CC=C(c2ccc3c(c2OCC2CC2)CCCC3)CC1)c1ccc(-c2ccc(C(F)(F)F)cc2)cc1` was 0.54 µM; that for `O=C(Nc1cccc2ccccc12)N1CCc2cc3nccc(N4CCN5CCC[C@H]5C4)c3cc21` was 0.89 µM; that for `O=C(Nc1ccccc1C(F)(F)F)Nc1nn(Cc2c(F)cccc2Cl)cc1Br` was 0.34 µM.

These data come from PubChem BioAssay AID2305 (GlaxoSmithKline (GSK), 2010).
